One may read the IC50 as the midpoint of a concentration-inhibition curve.

Where two headings read alike, the source gives them in different places. Where only a bound is given, the exact number is not on record here.

Experiment [1] has as its target Tyk2 (Homo sapiens (Human), UniProt P29597). Nature of the experiment: pSTAT4 Cell Assay (MSD, NK92 cells). It counts as cell-based.
Experiment [2] deals with JH2 domain of human Tyk2 (Homo sapiens (Human), UniProt P29597). Nature of the experiment: JH2 Biochemical Assay (TR-FRET probe displacement). The format is binding.
Setting [3] is: JH2 domain of human Tyk2, TR-FRET probe displacement.
Setting [4] is: TR-FRET probe displacement, JH2 domain.
Setting [5] is: TR-FRET probe displacement, JH2 domain of human Tyk2.

JH2 domain of human Tyk2, sequence (P29597 575-876): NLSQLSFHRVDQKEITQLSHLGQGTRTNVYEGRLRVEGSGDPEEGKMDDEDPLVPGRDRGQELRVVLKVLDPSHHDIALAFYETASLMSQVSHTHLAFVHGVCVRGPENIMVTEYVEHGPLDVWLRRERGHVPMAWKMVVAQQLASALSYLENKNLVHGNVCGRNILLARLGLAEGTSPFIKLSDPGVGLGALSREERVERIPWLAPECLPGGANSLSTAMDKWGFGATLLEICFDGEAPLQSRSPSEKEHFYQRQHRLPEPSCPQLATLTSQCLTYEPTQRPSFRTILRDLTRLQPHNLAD
Tyk2, sequence (P29597 whole entry, the tested form may be a part): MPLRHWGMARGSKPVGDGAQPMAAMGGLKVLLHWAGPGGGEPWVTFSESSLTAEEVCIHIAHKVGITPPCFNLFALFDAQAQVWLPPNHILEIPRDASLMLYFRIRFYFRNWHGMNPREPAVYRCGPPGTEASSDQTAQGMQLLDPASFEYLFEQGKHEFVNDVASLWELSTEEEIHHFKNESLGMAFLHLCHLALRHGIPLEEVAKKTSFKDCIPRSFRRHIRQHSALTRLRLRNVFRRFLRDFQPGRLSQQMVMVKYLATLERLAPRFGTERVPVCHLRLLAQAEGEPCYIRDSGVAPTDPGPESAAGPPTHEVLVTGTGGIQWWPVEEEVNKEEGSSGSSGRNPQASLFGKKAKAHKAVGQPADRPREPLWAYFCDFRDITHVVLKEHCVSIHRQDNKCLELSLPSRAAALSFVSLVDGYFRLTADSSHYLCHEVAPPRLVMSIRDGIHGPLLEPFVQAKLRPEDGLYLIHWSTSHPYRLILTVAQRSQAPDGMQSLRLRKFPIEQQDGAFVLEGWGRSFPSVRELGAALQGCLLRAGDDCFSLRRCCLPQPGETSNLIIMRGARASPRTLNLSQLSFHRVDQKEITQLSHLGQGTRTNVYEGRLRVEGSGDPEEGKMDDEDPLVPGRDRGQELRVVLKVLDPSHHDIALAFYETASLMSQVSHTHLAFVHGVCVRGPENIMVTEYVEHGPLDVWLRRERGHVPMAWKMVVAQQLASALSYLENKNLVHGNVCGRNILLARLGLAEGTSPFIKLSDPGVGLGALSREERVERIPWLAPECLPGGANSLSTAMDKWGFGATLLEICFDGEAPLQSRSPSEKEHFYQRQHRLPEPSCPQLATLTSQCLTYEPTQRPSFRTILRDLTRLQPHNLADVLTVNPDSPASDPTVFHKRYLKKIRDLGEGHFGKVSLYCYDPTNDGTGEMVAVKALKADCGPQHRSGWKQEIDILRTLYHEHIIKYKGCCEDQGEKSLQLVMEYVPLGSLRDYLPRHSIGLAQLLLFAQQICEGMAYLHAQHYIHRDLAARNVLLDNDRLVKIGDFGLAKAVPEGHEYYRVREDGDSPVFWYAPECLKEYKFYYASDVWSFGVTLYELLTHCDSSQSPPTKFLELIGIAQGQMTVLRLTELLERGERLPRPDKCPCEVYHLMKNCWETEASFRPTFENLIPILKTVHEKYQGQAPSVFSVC

For `CCn1cc(COc2cnc(NC(C)=O)cc2Nc2cc(C)nc(C(C)(F)F)n2)cn1` [Example 509, N-(4-((2-(1,1-difluoroethyl)-6-methylpyrimidin-4-yl)amino)-5-((1-ethyl-1H-pyrazol-4-yl)methoxy)pyridin-2-yl)acetamide], the IC50 in experiment [1] (MSD) is 0.01 to 0.1 µM; in experiment [2] (setting [3]), no more than 0.01 µM.

For `CCc1cc(Nc2cc(NC(=O)NC)ncc2-c2cnccn2)nc(C(C)(F)F)n1` [Example 919, 1-(4-((2-(1,1-difluoroethyl)-6-ethylpyrimidin-4-yl)amino)-5-(pyrazin-2-yl)pyridin-2-yl)-3-methylurea], the figures for the IC50 in experiment [1] and in experiment [2] (setting [4]) were 0.01 to 0.1 µM and no more than 0.01 µM, respectively.

`CNC(=O)Nc1cc(Nc2ccnc(C(C)(F)F)n2)c(-c2nc3c(s2)CN(C)CC3)cn1` [Example 795, 1-(4-((2-(1,1-difluoroethyl)pyrimidin-4-yl)amino)-5-(5-methyl-4,5,6,7-tetrahydrothiazolo[5,4-c]pyridin-2-yl)pyridin-2-yl)-3-methylurea]: the IC50 in experiment [1] and in experiment [2] (setting [4]) was no more than 0.01 µM throughout.

In the case of `CC(=O)Nc1cc(Nc2cc(C)nc(C(C)(F)F)n2)c(OCc2cnc(C)o2)cn1` [Example 320, N-(4-((2-(1,1-difluoroethyl)-6-methylpyrimidin-4-yl)amino)-5-((2-methyloxazol-5-yl)methoxy)pyridin-2-yl)acetamide], the IC50 is 0.01 to 0.1 µM in experiment [1] (MSD) and no more than 0.01 µM in experiment [2] (setting [5]).

Take `CC(=O)Nc1cc(Nc2cccc(C(C)(F)F)n2)c(-c2ccn(C)c(=O)n2)cn1` [Example 160, N-(4-((6-(1,1-difluoroethyl)pyridin-2-yl)amino)-5-(1-methyl-2-oxo-1,2-dihydropyrimidin-4-yl)pyridin-2-yl)acetamide]: the IC50 in experiment [1] (MSD) and in experiment [2] (setting [5]) was no more than 0.01 µM throughout.

As to `CC(=O)Nc1cc(Nc2cc(C)nc(C(C)(F)F)n2)c(-c2cc(C#N)cnn2)cn1` [Example 286, N-(5-(5-cyanopyridazin-3-yl)-4-((2-(1,1-difluoroethyl)-6-methylpyrimidin-4-yl)amino)pyridin-2-yl)acetamide], the IC50 in experiment [1] (MSD) is 0.1 to 1 µM; in experiment [2] (setting [5]) it was no more than 0.01 µM.

For `CC(=O)Nc1cc(Nc2cc(C(C)C)nc(C(C)(F)F)n2)c(-c2ncc(F)cn2)cn1` [Example 184, N-(4-((2-(1,1-difluoroethyl)-6-isopropylpyrimidin-4-yl)amino)-5-(5-fluoropyrimidin-2-yl)pyridin-2-yl)acetamide], the values for the IC50 in experiment [1] (MSD) and in experiment [2] (setting [5]) were 0.01 to 0.1 µM and no more than 0.01 µM, respectively.

For `COc1cc(-c2cnc(NC(C)=O)cc2Nc2ccnc(C(C)(F)F)n2)nc(C)n1` [Example 163, N-(4-((2-(1,1-difluoroethyl)pyrimidin-4-yl)amino)-5-(6-methoxy-2-methylpyrimidin-4-yl)pyridin-2-yl)acetamide], the IC50 was 0.01 to 0.1 µM in experiment [1] (MSD) and no more than 0.01 µM in experiment [2] (setting [5]).

On to `CC(=O)Nc1cc(Nc2cc(C)nc(C(C)(F)F)n2)c(-c2ncc(CN3CCN(C)CC3)s2)cn1` [Example 783, N-(4-((2-(1,1-difluoroethyl)-6-methylpyrimidin-4-yl)amino)-5-(5-((4-methylpiperazin-1-yl)methyl)thiazol-2-yl)pyridin-2-yl)acetamide], for which the IC50 in experiment [1] and in experiment [2] (setting [4]) was no more than 0.01 µM throughout.

In the case of `CC(=O)Nc1cc(Nc2cc(C)nc([C@]34CO[C@](CF)(C3)C4)n2)c(-c2ccn(C)n2)cn1` [Example 560, N-(4-((2-((1s,4s)-1-(fluoromethyl)-2-oxabicyclo[2.1.1]hexan-4-yl)-6-methylpyrimidin-4-yl)amino)-5-(1-methyl-1H-pyrazol-3-yl)pyridin-2-yl)acetamide], the IC50 in experiment [1] (MSD) was no less than 1 µM; in experiment [2] (setting [3]), 0.01 to 0.1 µM.

Take `COCc1cnc(-c2cnc(NC(C)=O)cc2Nc2cc(C)nc(C(C)(F)F)n2)nc1` [Example 672, N-(4-((2-(1,1-difluoroethyl)-6-methylpyrimidin-4-yl)amino)-5-(5-(methoxymethyl)pyrimidin-2-yl)pyridin-2-yl)acetamide]: the IC50 in experiment [1] (MSD) and in experiment [2] (setting [3]) was no more than 0.01 µM each time.

As for `CCc1cc(Nc2cc(NC(C)=O)ncc2-c2ccncn2)nc(C(C)(C)F)n1` [Example 801, N-(4-((6-ethyl-2-(2-fluoropropan-2-yl)pyrimidin-4-yl)amino)-5-(pyrimidin-4-yl)pyridin-2-yl)acetamide], the IC50 in experiment [1] and in experiment [2] (setting [4]) was no more than 0.01 µM throughout.

Regarding `CC(=O)Nc1cc(Nc2cc(C)nc(C(C)(F)F)n2)c(OC[C@H]2C[C@H](F)C2)cn1` [Example 332, N-(4-((2-(1,1-difluoroethyl)-6-methylpyrimidin-4-yl)amino)-5-(((1r,3r)-3-fluorocyclobutyl)methoxy)pyridin-2-yl)acetamide], the IC50 in experiment [1] (MSD) is 0.01 to 0.1 µM; in experiment [2] (setting [5]), no more than 0.01 µM.

With `COCCOc1nc(C)cc(Nc2cc(NC(C)=O)ncc2-c2ccn(C)n2)n1` [Example 559, N-(4-((2-(2-methoxyethoxy)-6-methylpyrimidin-4-yl)amino)-5-(1-methyl-1H-pyrazol-3-yl)pyridin-2-yl)acetamide], the IC50 is 0.01 to 0.1 µM in experiment [1] (MSD) and no more than 0.01 µM in experiment [2] (setting [3]).

As to `CC(=O)Nc1cc(Nc2cc(C)nc(C(C)(F)F)n2)c(-c2nc3n(n2)CCN(C)C3)cn1` [Example 759, N-(4-((2-(1,1-difluoroethyl)-6-methylpyrimidin-4-yl)amino)-5-(7-methyl-5,6,7,8-tetrahydro[1,2,4]triazolo[1,5-a]pyrazin-2-yl)pyridin-2-yl)acetamide], the IC50 in experiment [1] is 0.01 to 0.1 µM; in experiment [2] (setting [4]), no more than 0.01 µM.

Regarding `CC(=O)Nc1cc(Nc2cc(C)nc(C(C)(F)F)n2)c(-c2cc(CN3CCCC3)n(C)n2)cn1` [Example 803, N-(4-((2-(1,1-difluoroethyl)-6-methylpyrimidin-4-yl)amino)-5-(1-methyl-5-(pyrrolidin-1-ylmethyl)-1H-pyrazol-3-yl)pyridin-2-yl)acetamide], the half-maximal inhibitory concentration (IC50) in experiment [1] and in experiment [2] (setting [4]) was no more than 0.01 µM each time.

On to `CCc1cc(Nc2cc(NC(C)=O)ncc2-c2ccn(C)n2)nc(C(C)(F)F)n1` [Example 204, N-(4-((2-(1,1-difluoroethyl)-6-ethylpyrimidin-4-yl)amino)-5-(1-methyl-1H-pyrazol-3-yl)pyridin-2-yl)acetamide], for which the IC50 in experiment [1] (MSD) and in experiment [2] (setting [5]) was no more than 0.01 µM throughout.

`COC(C)(C)c1cc(-c2cnc(NC(C)=O)cc2Nc2cc(C)nc(C(C)(F)F)n2)nn1C` [Example 758, N-(4-((2-(1,1-difluoroethyl)-6-methylpyrimidin-4-yl)amino)-5-(5-(2-methoxypropan-2-yl)-1-methyl-1H-pyrazol-3-yl)pyridin-2-yl)acetamide]: the IC50 in experiment [1] and in experiment [2] (setting [4]) was no more than 0.01 µM throughout.

`COC1(COc2cnc(NC(C)=O)cc2Nc2cc(C)nc(C(C)(F)F)n2)CCC1` [Example 493, N-(4-((2-(1,1-difluoroethyl)-6-methylpyrimidin-4-yl)amino)-5-((1-methoxycyclobutyl)methoxy)pyridin-2-yl)acetamide]: the results for the IC50 in experiment [1] (MSD) and in experiment [2] (setting [3]) were 0.01 to 0.1 µM and no more than 0.01 µM, respectively.

As for `CC(=O)Nc1cc(Nc2ccnc(C(C)(F)F)n2)c(-c2ccc(CN3CC4(CCOC4)C3)cn2)cn1` [Example 889, N-(5-((6-oxa-2-azaspiro[3.4]octan-2-yl)methyl)-4′-((2-(1,1-difluoroethyl)pyrimidin-4-yl)amino)-[2,3′-bipyridin]-6′-yl)acetamide], the IC50 in experiment [1] and in experiment [2] (setting [4]) was no more than 0.01 µM throughout.
